Counter-ions that a name gives are not always drawn.
How the values were obtained:
Assay in all cases: MIC, standard broth dilution method in microtitre
Assay type in all cases: cell-based
[1] = tested on: S. aureus Smith ATCC 13709; settings: Staphylococcus aureus, ATCC13709
Description: (§1) Using a standard broth dilution method in microtitre, compounds were tested for antibacterial activity. The compounds in the above examples gave minimum inhibitory concentrations (MICs) less than 1 microgram per millilitre against erythromycin-sensitive and erythromycin-resistant strains of Streptococcus pneumoniae and Streptococcus pyogenes.
(§2) In addition, the MIC (μg/mL) of test compounds against various organisms was determined including:
(§3) S. aureus Smith ATCC 13709, S. pneumoniae SP030, S. pyogenes 3565, E. faecalis ATCC 29212, H. influenzae ATCC 49247, M. catarrhalis ATCC 23246.

[2] = tested on: S. pyogenes 3565; settings: Streptococcus pyogenes
Description: as §1, §2, §3

[3] = tested on: E. faecalis ATCC 29212; settings: Enterococcus faecalis, ATCC29212
Description: as §1, §2, §3

[4] = tested on: S. pneumoniae SP030; settings: Streptococcus pneumoniae
Description: as §1, §2, §3

[5] = tested on: erythromycin-resistant strains of Streptococcus pneumoniae
Description: as §1

[6] = tested on: erythromycin-resistant strains of Streptococcus pyogenes
Description: as §1

[7] = tested on: H. influenzae ATCC 49247; settings: Haemophilus influenzae, ATCC49247
Description: as §1, §2, §3

[8] = tested on: M. catarrhalis ATCC 23246; settings: Moraxella catarrhalis, ATCC23246
Description: as §1, §2, §3

Row | MIC [1] [µg/mL] | MIC [2] [µg/mL] | MIC [3] [µg/mL] | MIC [4] [µg/mL] | MIC [5] [µg/mL] | MIC [6] [µg/mL] | MIC [7] [µg/mL] | MIC [8] [µg/mL] | Structure (SMILES)
1 | – | – | – | – | ≤ 0.25 | ≤ 0.25 | ≤ 2 | ≤ 2 | CC[C@@H]1OC(=O)[C@H](C)[C@H](O[C@@H]2C[C@](C)(OC)[C@H](OC(=O)CCNCCCc3ccc4c(c3)c(=O)c(C(=O)O)cn4CC)[C@H](C)O2)[C@@H](C)[C@H](O[C@@H]2O[C@H](C)C[C@H](N(C)C)[C@@H]2O)[C@](C)(OC)C[C@H](C)C(=O)[C@@H](C)[C@H]2NC(=O)O[C@@]12C [Example 7, 4″-O-{3-[3-(3-Carboxy-1,4-dihydro-1-ethyl-4-oxo-6-quinolinyl)propylamino]-propionyl}-6-O-methyl-11-desoxy-11-(R)-amino-erythromycin A 11,12-carbamate diformate salt]
2 | ≤ 1 | ≤ 1 | ≤ 1 | ≤ 1 | ≤ 0.25 | ≤ 0.25 | – | – | CC[C@@H]1OC(=O)[C@H](C)[C@H](O[C@@H]2C[C@](C)(OC)[C@H](OC(=O)CCNCCCc3ccc4c(c3)c(=O)c(C(=O)OC)cn4CC)[C@H](C)O2)[C@@H](C)[C@H](O[C@@H]2O[C@H](C)C[C@H](N(C)C)[C@@H]2O)[C@](C)(OC)C[C@H](C)C(=O)[C@@H](C)[C@H]2NC(=O)O[C@@]12C [Example 8, 4″-O-{3-[3-(3-Carboxy-1,4-dihydro-1-ethyl-4-oxo-6-quinolinyl)propylamino]propionyl}-6-O-methyl-11-desoxy-11-(R)-amino-erythromycin A 11,12-carbamate methyl ester diformate salt]
3 | ≤ 1 | ≤ 1 | ≤ 1 | ≤ 1 | ≤ 0.25 | ≤ 0.25 | ≤ 2 | ≤ 2 | CC[C@@H]1OC(=O)[C@H](C)[C@H](O[C@@H]2C[C@](C)(OC)[C@H](OC(=O)CCNCCCc3ccc4c(c3)c(=O)c(C(=O)O)cn4CC)[C@H](C)O2)[C@@H](C)[C@H](O[C@@H]2O[C@H](C)C[C@H](N(C)C)[C@@H]2O)[C@](C)(O)C[C@H](C)CN(C)[C@@H](C)[C@H]2OC(=O)O[C@@]12C [Example 6, 4″-O-{3-[3-(3-Carboxy-1-dihydro-1-ethyl-4-oxo-6-quinolinyl)propylamino]propionyl}-azithromycin-11,12-carbonate]

The next lines start with the compound.

Row | Structure (SMILES) | MIC [1] [µg/mL] | MIC [2] [µg/mL] | MIC [3] [µg/mL] | MIC [4] [µg/mL] | MIC [5] [µg/mL] | MIC [6] [µg/mL] | MIC [7] [µg/mL] | MIC [8] [µg/mL]
4 | CC[C@@H]1OC(=O)[C@H](C)[C@H](O[C@@H]2C[C@](C)(OC)[C@H](OC(=O)CCNCCCc3cc4c(cc3F)c(=O)c(C(=O)O)cn4CC)[C@H](C)O2)[C@@H](C)[C@H](O[C@@H]2O[C@H](C)C[C@H](N(C)C)[C@@H]2O)[C@](C)(O)C[C@H](C)CN(C)[C@H](C)[C@@H](O)[C@]1(C)O [Example 2, 4″-O-{3-[3-(3-Carboxy-1,4-dihydro-1-ethyl-6-fluoro-4-oxo-7-quinolinyl)propylamino]propionyl}-azithromycin tris trifluoroacetate salt] | ≤ 1 | ≤ 1 | ≤ 1 | ≤ 1 | – | – | – | –
5 | CC[C@H]1OC(=O)[C@H](C)[C@@H](O[C@H]2C[C@@](C)(OC)[C@@H](OC(=O)CCNCCCc3cc4c(cc3F)c(=O)c(C(=O)O)cn4CC)[C@H](C)O2)[C@H](C)[C@@H](O[C@@H]2O[C@H](C)C[C@H](N(C)C)[C@H]2O)[C@](C)(OC)C[C@@H](C)C(=O)[C@H](C)[C@@H](O)[C@]1(C)O [Example 1, 4″-O-{3-[3-(3-Carboxy-1,4-dihydro-1-ethyl-6-fluoro-4-oxo-7-quinolinyl)propylamino]propionyl}-6-O-methylerythromycin A] | ≤ 1 | ≤ 1 | ≤ 1 | ≤ 1 | – | – | – | –
6 | CC[C@@H]1OC(=O)[C@H](C)[C@H](O[C@@H]2C[C@](C)(OC)[C@H](OC(=O)CCNCCCc3ccc4c(c3)c(=O)c(C(=O)O)cn4CC)[C@H](C)O2)[C@@H](C)[C@H](O[C@@H]2O[C@H](C)C[C@H](N(C)C)[C@@H]2O)[C@](C)(O)C[C@H](C)CN(C)[C@H](C)[C@@H](O)[C@]1(C)O [Example 5, 4″-O-{3-[3-(3-Carboxy-1,4-dihydro-1-ethyl-4-oxo-6-quinolinyl)propylamino]propionyl}-azithromycin] | – | – | – | – | ≤ 0.25 | ≤ 0.25 | – | –

Reference: US20070293472A1, “Novel 14 and 15 Membered Ring Compounds” (Glaxo Group Limited, priority 2003, published 2007)
